According to publication PMC3813364 (Iranian Journal of Pharmaceutical Research : IJPR, 2013):
Entries after “also recorded” stand apart in the source; their conditions may differ.

What was measured:
[1] = tested on: everted sacs of rat small intestine (jejunum); test: LDH release of the everted gut sac; details: TPGS 0.1 mg/mL, PEG 0.5% w/v, 90 min
Method: The viability and any possible damage of the gut were evaluated by measuring the release of the cytosolic enzyme lactic dehydrogenase (LDH) as an indicator of cell damage ([18]). The LDH activity was determined in the incubation media in the absence or presence of the excipients using LDH-P kit from Kimia pajouhan (Tehran, Iran). The results were calculated as U/L/cm^2 of sac area (1 unit reduces 10^-6 mol pyruvate per min at pH of 7.5). The influence of excipients (using the maximum concentrations) on the viability of gut sac was measured at 30, 60 and 90 min and compared to the control group (without adding any excipient).

[2] = tested on: everted sacs of rat small intestine (jejunum); test: Etoposide mucosal-to-serosal transport across everted gut sac in absence or presence of excipients/P-gp inhibitor; assay type: in vitro ADME; details: etoposide 25 μg/mL; verapamil 100 μg/mL, TPGS 0.002-0.1 mg/mL, PEG 400 0.05, 0.1 and 0.5% w/v; compared to control
Method: (§1) The everted sac method was used as previously described ([25]). Everted intestinal sacs were prepared by quickly removing the small intestine from starved rats killed under CO2-anesthesia. The jejunum was excised, flushed through several times with saline solution at room temperature and placed immediately into oxygenated buffer solution at 37°C. Then the intestine was gently everted over a steel rod, filled with fresh oxygenated buffer solution and divided into sacs approximately 4.5 cm in length with silk suture. […] At the defined time points sacs were removed and blotted dry. The sacs were cut open and the serosal fluid was drained into small Eppendorf vial to determine the drug concentration. The area of each sac was calculated closely. Each sac was weighed before and after fluid collection to calculate accurately the volume inside the sac.
(§2) The chromatographic data was acquired by Chromgate 3.1 software from Knauer. Analyses were carried out at ambient temperature on a Chromolith Performance RP-18e (100 mm 4.6 mm i.d., Merck) coupled with a Chromolith RP-18e guard cartridge (5.0 mm 4.6 mm i.d., Merck).

[3] = tested on: everted sacs of rat small intestine (jejunum); test: Paracellular (lucifer yellow) and transcellular (imipramine) marker permeability across everted gut sac with or without TPGS; assay type: in vitro ADME
Method: as §1, §2

LDH release in presence of excipient versus control [1]	Effect on absorptive transport/permeability of etoposide (in words) [2]	Permeability of lucifer yellow ([3]; in absence of TPGS)	Permeability of lucifer yellow ([3]; in presence of TPGS 0.1 mg/mL)	Substance
not notably changed	no effect; also recorded: not affected			PEG 400
		9.3 ± 0.03 × 10^-6 cm/s	9.65 ± 0.6 × 10^-6 cm/s	Lucifer yellow
